In patent US9598361B1, “Amino substituted acetamide derivative” (KING SAUD UNIVERSITY, priority 2016, dated 2017):
Read-outs that look alike come from different tables or passages of the source.

Assays:
[1] = tested on: absolute ethanol-induced ulcer; assay: Anti-ulcerogenic activity, absolute ethanol-induced ulcer model; type: in vivo, male Wistar rats; settings: for inhibition in vivo at 100 mg/kg / inhibition in vivo at 50 mg/kg: Rattus norvegicus, po; for score: lesion score 0-5, rats; for inhibition in vivo at 50 mg/kg: read-out: % protection
Description: (§1) The biological activities of the investigational compounds (CP1-8) were investigated as follows. Swiss albino mice of both sexes (26-30 g) and male Wistar rats (180-200 g) were purchased from the animal house of King Saud University, KSA. Animals were housed in standard polypropylene cages with wire mesh top and maintained under standard conditions (temperature 23±1.0° C., humidity 55±10%, 12 h light/12 h dark cycle). They were fed a standard pellet diet with water ad libitum and were allowed to adapt to the laboratory environment for one week before experimentation.
Evaluation of the anti-ulcerogenic activity was carried out using absolute ethanol-induced ulcer model as described by Bighettia et al. (2005). Eighteen male Wistar rats were divided into 3 groups each of 6 rats. Group 1 received the vehicle and served as control ulcer, Group 2 received ranitidine (100 mg/kg) and served as standard, and Groups 3 received the target compound at a dose of 50 mg/kg for CP1-7 and a dose of 100 mg/kg for CP8.
Rats of all groups were fasted for 24 h then all medications were administered orally. One hour after treatment, the animals received an oral dose of absolute ethanol (1 ml/200 g) and then sacrificed one hour later, by ether inhalation, the stomachs were rapidly removed, opened along their greater curvature and gently rinsed under running tap water.
Number of lesions in the glandular part of the stomach were measured under an illuminated magnifying microscope (10×). Long lesions were counted and their lengths were measured. Petechial lesions were counted, and then each five petechial lesions were taken as 1 mm of ulcer.
The lesion scores in the mucosal lesions were quantified by the scoring system (0-5) 0=no damage, 1=Local edema and inflammation without ulcers; 2=One ulcer without inflammation; 3=one to two ulcers with inflammation & lesion diameter <1 cm; 4=More than two ulcers with lesion diameter 1-2 cm; 5=Sever ulceration with lesion diameter >2 cm (Morris et al., 1989).
In order to calculate the Ulcer Index (mm), the sum of the total length of long ulcers and petechial lesions in each group of rats was divided by its number. The curative ratio was determined according to the formula: […]

[2] = tested on: acetic acid induced colitis; assay: Anti-ulcerative colitis activity, acetic acid induced colitis; type: in vivo, rats; settings: for % Protection of control colitis: Table 5, CP8 100 mg/kg; for inhibition in vivo at 50 mg/kg: Rattus norvegicus, po, 120 h, read-out: % Protection; for Wt/l: colon wet weight/length ratio; for effect versus dexamesathone in reducing all colitis parameters (in words): 50 mg/kg versus dexamesathone 0.1 mg/kg
Description: as §1
Groups of animals each of 6 rats were used for assessing the anti-ulcerative colitis activity. The first group received dexamesathone at dose 0.1 mg/kg orally to serve as standard; two other groups received water orally and served as normal control and control colitis. Other groups received the tested compounds CP 1-7 at a dose 50 mg/kg and tested compound CP 8 at a dose of 100 mg/kg. Ulcerative colitis was induced by slowly infusion of 2 mL (4%, v/v) acetic acid in saline into the colon through the catheter. Two hours after the induction of colitis, animals received the 1st dose of all medication, then all groups received medication for 5 consecutive days, two hours after the last dose, animals were sacrificed by ether anesthesia, colonic segments (8 cm in length and 3 cm proximal to the anus) were excised, opened and were used for macroscopic scoring (Awaad et al., 2013).
The colonic lesions were assessed as follows. The colon specimens were weighted and wet weight/length ratio was calculated for all the rats. The specimens were examined under a dissecting microscope and the mucosal lesions were quantified by the scoring system (0-5) given by Awaad et al., (2013) after some modifications. The lesion scores were determined as follows: 0=no damage, 1=Local edema and inflammation without ulcers; 2=One ulcer without inflammation; 3=one to two ulcers with inflammation & lesion diameter <1 cm; 4=More than two ulcers with lesion diameter 1-2 cm; 5=Sever ulceration with lesion diameter >2 cm.
The ulcer area was measured using plane glass square. Each cell on the glass square was 1 mm^2 in area and the number of cells was counted and the ulcer area was determined for each colon. The ulcer index was measured by summing the lesion score and the ulcer area for each colon specimen (Awaad et al, 2013).

[3] = tested on: liver and kidney functions; assay: Effect on liver and kidney functions; type: in vivo, Male Wister rats
Description: The effect on liver and kidney functions using the derivatives were investigated as follows. Male Wister rats were divided into 2 groups, each of 10 rats. The 1st group was left as a control and administered the vehicle orally, while the other group was orally administered the synthesized compounds in a dose of 50 mg/kg (for CP 1-7) or a dose of about 100 mg/kg (for CP 8). After the examination period, 6 h after the last dose blood samples were collected from the orbital plexus of rats. Samples were left to clot at room temperature for 30 min then centrifuged at 1000 rpm for 20 min.
The collected sera were used for determination of the activity of both (AST) aspirate aminotransferase and (ALT) alanine aminotransferase as liver markers. In addition, levels of blood urea, serum creatinine were also estimated as kidney markers (Awaad et al., 2013).

[4] = Table 3, protection of control ulcer, oral 100 mg/kg
[5] = Table 7, rat serum, oral 100 mg/kg, mean ± SD, n = 10
[6] = Table 7, rats, oral 100 mg/kg, mean ± SD, n = 10
[7] = rats, oral 50 mg/kg (CP 1-7) or 100 mg/kg (CP 8)
[8] = Table 2, oral, CP-1-7 50 mg/kg, ranitidine 100 mg/kg
[9] = Table 4, oral 5 days, CP-1-7 50 mg/kg, dexamethasone 0.1 mg/kg
[10] = Table 6, rat serum, oral 50 mg/kg, 6 h after last dose, mean ± SD, n = 10
[11] = Table 6, rats, oral 50 mg/kg, 6 h after last dose, mean ± SD, n = 10
[12] = Table 2, protection of control ulcer, oral, CP-1-7 50 mg/kg, ranitidine 100 mg/kg
[13] = Table 4, protection of control colitis, CP-1-7 50 mg/kg, dexamethasone 0.1 mg/kg

| Compound | score [1, 8] | Wt/l [2, 9] | ALT [3, 10] | AST [3, 10] | Serum Creatinine [3, 11] | melting point | inhibition in vivo at 50 mg/kg [1, 12] | inhibition in vivo at 50 mg/kg [2, 13] | Blood Urea [3, 11] | also measured |
| --- | --- | --- | --- | --- | --- | --- | --- | --- | --- | --- |
| NS(=O)(=O)c1ccc(NC(=O)CNc2ccccc2C(=O)O)cc1 [CP8, 2-(2-Hydroxycarbonylphenylamino)-N-(4-aminosulphonylphenyl)acetamide] |  |  |  |  |  |  |  |  |  | effect versus ranitidine in reducing ulcer index and ulcer score (in words) ([1]; CP8 100 mg/kg versus ranitidine 100 mg/kg): significantly more effective than the standard; inhibition in vivo at 100 mg/kg [1, 4]: 87.1%; score ([1]; Table 3, oral 100 mg/kg): 1.20; % Protection of control colitis ([2]; dexamethasone 0.1 mg/kg): 64.2%; ALT [3, 5]: 39.70 ± 0.22 U/l; AST [3, 5]: 66.28 ± 0.40 U/l; Blood Urea [3, 6]: 68.60 ± 1.9 mg/dL; Creatinine [3, 6]: 0.86 ± 0.03 mg/dL; liver functions (activity of AST and ALT), hepatotoxic manifestation (in words) [3, 7]: didn't reveal hepatotoxic manifestation; nephrotoxic manifestations (in words) [3, 7]: no apparent nephrotoxic manifestations; liver and kidney functions versus control (in words) ([3]; rats, oral 100 mg/kg, 0.05 level of probability): not affected |
| N#CC1(c2ccccc2)CCN(CC(=O)Nc2ccc(S(N)(=O)=O)cc2)CC1 [CP-1, 2-[(4-Cyano-4-phenyl)piperidinyl]-N-(4-aminosulphonylphenyl)acetamide] | 3.20 | 0.79 ± 0.08 | 35.77 ± 1.60 U/l | 44.43 ± 1.57 U/l | 0.88 ± 0.03 mg/dL | 196 to 198 °C |  |  |  | inhibition in vivo at 50 mg/kg [1]: 55.5%; inhibition in vivo at 50 mg/kg [2]: 31.7%; effect on blood urea concentration (in words) ([3]; rats, oral 50 mg/kg): slightly elevate |
| NS(=O)(=O)c1ccc(NC(=O)CN2CCC(O)(c3ccccc3)CC2)cc1 [CP-2, 2-[(4-Hydroxy-4-phenyl)piperidinyl]-N-(4-aminosulphonylphenyl)acetamide] | 3.20 | 0.74 ± 0.02 |  |  |  | 221 to 223 °C | 71.9% | 49.1% |  | ALT ([3]; rat, in vivo, po, 50 mg/kg): 39.70 ± 0.22 U/l; AST ([3]; rat, in vivo, po, 50 mg/kg): 66.28 ± 0.40 U/l; Blood Urea ([3]; rat, in vivo, po, 50 mg/kg): 52.55 ± 1.24 mg/dL; Serum Creatinine ([3]; rat, in vivo, po, 50 mg/kg): 0.86 ± 0.03 mg/dL |
| NS(=O)(=O)c1ccc(NC(=O)CN2CCC(c3ccc(Cl)cc3)CC2)cc1 [CP-3, 2-[4(4-Chlorophenyl)piperidinyl]-N-(4-aminosulphonylphenyl)acetamide] | 2.20 | 0.64 ± 0.05 | 36.87 ± 1.28 U/l | 44.16 ± 1.57 U/l |  | 270 to 272 °C | 90.3% | 64.2% | 46.02 ± 1.10 mg/dL | effect versus dexamesathone in reducing all colitis parameters (in words) [2]: significantly more effective than dexamesathone; effect on serum creatinine (in words) ([3]; rats, oral 50 mg/kg): slightly elevated |
| NS(=O)(=O)c1ccc(NC(=O)CN2CCC(N3CCCCC3)CC2)cc1 [CP-4, 2-[4-(1-Piperidino)piperidinyl]-N-(4-aminosulphonylphenyl)acetamide] | 2.00 | 0.84 ± 0.02 | 36.87 ± 1.28 U/l | 44.16 ± 1.57 U/l |  | 215 to 217 °C | 97.7% | 25.3% | 47.96 ± 0.84 mg/dL | score ([2]; Table 4, lesion score 0-5, oral 5 days, CP-1-7 50 mg/kg, dexamethasone 0.1 mg/kg): 3.00 ± 0.63; effect on serum creatinine (in words) ([3]; rats, oral 50 mg/kg): slightly elevated |
| COc1ccc(C2CCN(CC(=O)Nc3ccc(S(N)(=O)=O)cc3)CC2)cc1 [CP-5, 2-[4(4-Methoxyphenyl)piperidinyl]-N-(4-aminosulphonylphenyl)acetamide] | 2.40 | 0.75 ± 0.02 | 36.35 ± 1.26 U/l | 44.09 ± 1.25 U/l | 0.86 ± 0.07 mg/dL | 175 to 177 °C | 83.6% | 22.3% | 55.92 ± 0.55 mg/dL |  |
| Cc1cccc(N2CCN(CC(=O)Nc3ccc(S(N)(=O)=O)cc3)CC2)c1C [CP-6, 2-[4(2,3-Xylyl)piperazinyl]-N-(4-aminosulphonylphenyl)acetamide] | 3.00 | 0.71 ± 0.05 | 36.02 ± 1.58 U/l | 44.7 ± 1.66 U/l | 0.83 ± 0.08 mg/dL | 241 to 243 °C | 88.5% | 30.6% | 51.00 ± 0.89 mg/dL |  |
| Cc1cc(NCC(=O)Nc2ccc(S(N)(=O)=O)cc2)c2ccccc2n1 [CP-7, 2-(2-Methylquinolin-4-ylamino)-N-(4-aminosulphonylphenyl)acetamide] | 3.60 | 0.49 ± 0.02 | 36.33 ± 1.35 U/l | 46.16 ± 1.48 U/l | 0.85 ± 0.09 mg/dL | > 300 °C | 64.1% | 66.8% | 53.00 ± 0.14 mg/dL | effect versus dexamesathone in reducing all colitis parameters (in words) [2]: significantly more effective than dexamesathone |
| C[C@@H]1C[C@H]2[C@@H]3CCC4=CC(=O)C=C[C@]4(C)[C@@]3(F)[C@@H](O)C[C@]2(C)[C@@]1(O)C(=O)CO [Dexamethasone, reference compound] |  | 0.52 ± 0.07 |  |  |  |  |  | 59.3% |  | % Protection of control colitis ([2]; dexamethasone 0.1 mg/kg): 60% |
| CNC(=C[N+](=O)[O-])NCCSCc1ccc(CN(C)C)o1 [Ranitidine, ranitidine, reference compound] | 2.20 |  |  |  |  |  | 49.2% |  |  | inhibition in vivo at 100 mg/kg [1, 4]: 58.8%; score ([1]; Table 3, oral 100 mg/kg): 2.20 |
